Values quoted from earlier work, collected in patent US8877755B2, “Dopamine-agonist combination therapy for improving sleep quality” (priority 2004, dated 2014).
Structures can show the parent of a compound that is named as a salt. Where two headings read alike, the source gives them in different places.

Legend:
[1] = not given; remark: listed apart in the source
[2] = in vivo
[3] = mice; behavioral depression score <40
[4] = not given; remark: listed apart in the source
[5] = in vivo; remark: listed apart in the source
[6] = system: GABA uptake system; design: dose or concentration left out as unconfirmed
[7] = target: GABA:2-oxo-glutarate aminotransferase (Homo sapiens, UniProt P80404); settings: at 10^−3 M
[8] = system: L-glutamate 1-carboxylase; settings: at 10^−3 M
[9] = not given; remark: listed apart in the source
[10] = in vivo; remark: listed apart in the source
[11] = following oral administration
[12] = L-dopa 100 mg with carbidopa 10 mg, in most cases
[13] = primates, multiple doses for up to four days

Chain of GABA:2-oxo-glutarate aminotransferase (P80404 29-500): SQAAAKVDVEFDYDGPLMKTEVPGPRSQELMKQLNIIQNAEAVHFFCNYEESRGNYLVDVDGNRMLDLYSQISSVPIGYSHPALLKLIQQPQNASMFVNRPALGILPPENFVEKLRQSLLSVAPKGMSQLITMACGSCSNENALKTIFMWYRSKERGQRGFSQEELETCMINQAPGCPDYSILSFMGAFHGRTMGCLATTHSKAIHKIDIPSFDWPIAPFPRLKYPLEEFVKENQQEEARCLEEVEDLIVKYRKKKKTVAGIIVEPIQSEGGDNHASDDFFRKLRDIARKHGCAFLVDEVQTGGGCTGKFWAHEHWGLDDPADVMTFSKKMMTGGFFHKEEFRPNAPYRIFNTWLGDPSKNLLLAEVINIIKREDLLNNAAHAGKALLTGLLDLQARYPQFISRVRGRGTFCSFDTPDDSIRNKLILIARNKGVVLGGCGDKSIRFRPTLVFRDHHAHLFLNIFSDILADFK

CC(=O)N(C)c1cccc(-c2ccnc3c(C(=O)c4cccs4)cnn23)c1 [Indiplon, N-methyl-N-(3-{3-[2-thienylcarbonyl]-pyrazolo-[1,5-a]-pyrimidin-7-yl}-phenyl)acetamide]
half-life in vivo: approximately 1.3 hours
resulting pH of water solution ([1]; at 20-30 μg/ml in water): approximately 8.0

Cc1ccc(-c2nc3ccc(C)cn3c2CC(=O)N(C)C)cc1 [zolpidem, N,N,6-trimethyl-2-(4-methylphenyl)-imidazo[1,2-s]pyridine-3-acetamide]
elimination half-life (mean) [2]: 2.4 h

CCCC(C)C1(CC)C(=O)NC(=O)NC1=O (centres unmarked) [pentobarbital]
ED100 [3]: 100 mg/kg

CN1CCc2cccc3c2[C@H]1Cc1ccc(O)c(O)c1-3 [apomorphine, (R)-5,6,6a,7-tetrahydro-6-methyl-4H-dibenzo-[de,g]quinoline-10,11-diol]
tolerated dose, continuous infusion ([4]; continuous infusion for 14 days): 420 µg/kg/h
minimally lethal dose, continuous infusion ([4]; over the course of the 14 day study): 1,500 μg/kg/hr

CCC1(c2ccccc2)CCC(=O)NC1=O (centres unmarked) [glutethimide]
ED100 [3]: 300 mg/kg

CN1C(=O)CN=C(c2ccccc2)c2cc(Cl)ccc21 [diazepam]
ED100 [3]: 50 mg/kg

C=CCN1C[C@H](C(=O)N(CCCN(C)C)C(=O)NCC)C[C@@H]2c3cccc4[nH]cc(c34)C[C@H]21 [Cabergoline, 1-[(6-allylergolin-8β-yl)-carbonyl]-1-[3-(dimethylamino)propyl]-3-ethylurea]
half life [5]: ≤ 65 h

Oc1noc2c1CCNC2 [gaboxadol, 4,5,6,7-tetrahydroisoxazolo[5,4-c]pyridin-3-ol]
interaction with GABA uptake system [6]: did not interact
interaction with GABA:2-oxo-glutarate aminotransferase [7]: did not interact
interaction with L-glutamate 1-carboxylase [8]: did not interact

CN1C[C@@H](NS(=O)(=O)N(C)C)C[C@@H]2c3cccc4c3c(cn4C)C[C@H]21 [mesulergine, N′-(1,6-dimethylergolin-8α-yl)-N,N-dimethylsulfamide]
half-life in vivo [9]: approximately 2 hr
solubility in water ([1]; hydrochloride salt): soluble in water

O=C(CCCN1CCC(O)(c2ccc(Cl)cc2)CC1)c1ccc(F)cc1 [haloperidol]
ED100 [3]: 10 mg/kg

Oc1ccc(C2CNCCc3c2cc(O)c(O)c3Cl)cc1 (racemic) [racemic fenoldopam, 6-chloro-2,3,4,5-tetrahydro-1-(4-hydroxyphenyl)-1H-3-benzazepine-7,8-diol]
average clearance (CL) [10]: 2.6 L/min
half-life (t1/2) [10]: 4.6 min

CCN(C(C)=O)c1cccc(-c2ccnc3c(C#N)cnn23)c1 [Zaleplon, N-[3-(3-cyanopyrazolo[1,5-a]pyrimidin-7-yl)phenyl]-N-ethylacetamide]
time to peak plasma concentration [11]: 1 h

CCCC(C)(COC(N)=O)COC(N)=O [meprobamate]
ED100 [3]: 300 mg/kg

N[C@@H](Cc1ccc(O)c(O)c1)C(=O)O [L-dopa]
effect on RLS [12]: completely suppresses RLS

COC(=O)[C@H]1[C@H]2C[C@@H]3c4[nH]c5cc(OC)ccc5c4CCN3C[C@H]2C[C@@H](OC(=O)c2cc(OC)c(OC)c(OC)c2)[C@@H]1OC [reserpine]
ED100 [3]: 50 mg/kg

CN1CCc2cccc3c2[C@H]1Cc1ccc(O)c(O)c1-3 [apomorphine HCl]
doses without major adverse effects [13]: 0.1 to 0.4 mg/kg
tolerated dose ([4]; single bolus subcutaneous injection, mammals): up to 13 mg/kg
